Two compounds from patent publication US10865257B2, “Production methods for aqueous emulsion, fine powder and stretched porous body of modified polytetrafluoroethylene” (AGC Inc., priority 2015, dated 2020) can be followed below.

A short description of this series: LogPOW, distribution coefficient in 1-octanol and water (OECD Test Guideline 107, 117; JIS Z7260-107). The format is physicochemical. As to conditions: 1-octanol/water (1:1) distribution coefficient. The source says:
In the present invention, a fluorinated anionic surfactant having a LogPOW of from 2.4 to 3.4 is used. The LogPOW is a distribution coefficient in 1-octanol and water as stipulated in OECD Test Guideline 107, 117 and Japanese Industrial Standard Z7260-107 (2000).
At the time when a mixed liquid of octanol/water (1:1) each containing a surfactant to be measured, is phase-separated, POW represents a ratio of the surfactant concentration in octanol/the surfactant concentration in water. A surfactant having a large distribution coefficient value has a high bioaccumulation property, and a surfactant having a small distribution coefficient value has a low bioaccumulation property. When the LogPOW is 3.4 or less, the bioaccumulation property is judged to be low. By the measurement conducted by the present inventors, the LogPOW of APFO was 3.67.

With `O=C(O)C(F)(F)OC(F)(F)C(F)(F)OC(F)(F)C(F)(F)F` [APFDO, ammonium perfluoro-3,6-dioxaoctanoate], the logP (commonly the decadic logarithm of the partition coefficient of the neutral form, usually between octanol and water) was found to be 3.1.

Turning to `O=C(O)C(F)(F)C(F)(F)C(F)(F)C(F)(F)C(F)(F)C(F)(F)C(F)(F)F` [APFO, ammonium perfluorooctanoate], the logP was 3.67.
